The MIC is the smallest concentration in the dilution series that meets the test's criterion for growth inhibition. The low end stands for inhibition by little substance, the high end for a need for much substance.

Test systems include Escherichia coli UB1005; Bacillus subtilis; Acinetobacter baumannii; Staphylococcus aureus MR; Escherichia coli.
Test in all cases: ≥ marks a high value that may be exact or a test limit, other limits are often not marked, values filed in µg/mL are converted to µM
The subject of experiment [1] is Enterococcus faecalis ATCC 29212.
The test system of experiment [2] is Salmonella enterica subsp. enterica serovar Typhimurium C77-31.
Experiment [3] has as its system Staphylococcus epidermidis ATCC 12228.
In experiment [4] the test system is Candida albicans ATCC 90028.
The subject of experiment [5] is Escherichia coli ATCC 25922.
In experiment [6] the test system is Staphylococcus aureus NCTC 8325.
In experiment [7] the test system is Candida albicans ATCC 2002.
Experiment [8] has as its system Staphylococcus aureus ATCC 2592.
For experiment [9], the system named is Acinetobacter baumannii ATCC 19606.
The subject of experiment [10] is Pseudomonas aeruginosa ATCC 27853.
The test system of experiment [11] is Staphylococcus aureus ATCC 25923.
The subject of experiment [12] is Staphylococcus aureus ATCC 29213.
Experiment [13] has as its system Klebsiella pneumoniae ATCC 13883.
Experiment [14] concerns Salmonella enterica subsp. enterica serovar Typhimurium ATCC 14028.
Experiment [15] relates to Streptococcus pyogenes ATCC 19615.
Experiment [16] has as its system Staphylococcus aureus ATCC 33591.

In brackets after ≈: the same amount, converted by molar mass. Several values for one entry are separate records, joined by “and”; a condition that tells them apart may be missing. Identical values can stand only once.

As to `CC[C@H](C)[C@H](NC(=O)[C@H](CCCCN)NC(=O)[C@H](Cc1c[nH]c2ccccc12)NC(=O)[C@H](CC(C)C)NC(=O)[C@H](CCCN=C(N)N)NC(=O)[C@H](CCCCN)NC(=O)[C@H](CCCN=C(N)N)NC(=O)[C@@H](NC(=O)[C@H](CCCCN)NC(=O)[C@H](Cc1c[nH]c2ccccc12)NC(=O)[C@H](CCCN=C(N)N)NC(=O)[C@H](CC(C)C)NC(=O)[C@H](CCCN=C(N)N)NC(=O)[C@H](CCCN=C(N)N)NC(=O)[C@H](Cc1ccccc1)NC(=O)[C@@H](N)CCCN=C(N)N)[C@@H](C)O)C(N)=O` [RFRRLRWKTRKRLWKI], the MIC in experiment [1] amounted to 8 µM (≈ 18.4 µg/mL); in the experiment on Escherichia coli UB1005 it was 16 µM (≈ 36.8 µg/mL); in [2] it was 16 µM (≈ 36.8 µg/mL); in experiment [3] it was 32 µM (≈ 73.6 µg/mL).
For `CC[C@H](C)[C@H](NC(=O)[C@H](CC(C)C)NC(=O)[C@H](CCCCN)NC(=O)[C@H](CO)NC(=O)[C@@H](NC(=O)[C@H](C)NC(=O)[C@H](CCCCN)NC(=O)[C@@H](NC(=O)[C@H](C)NC(=O)[C@H](Cc1cnc[nH]1)NC(=O)[C@@H]1CCCN1C(=O)[C@@H](NC(=O)[C@H](CC(C)C)NC(=O)[C@@H]1CCCN1C(=O)CNC(=O)[C@@H](NC(=O)[C@H](Cc1ccc(O)cc1)NC(=O)[C@H](CCCCN)NC(=O)[C@H](CCSC)NC(=O)[C@H](Cc1ccccc1)NC(=O)CN)[C@@H](C)CC)[C@@H](C)CC)C(C)C)[C@@H](C)CC)C(=O)O` [GFMKYIGPLIPHAVKAISKLI], the figures for the MIC in experiment [4], in [5] and in [6] were no less than 100 µM, 25 µM (≈ 57.4 µg/mL) and no less than 50 µM, respectively.
On to `CC[C@H](C)[C@@H]1NC(=O)[C@H](CO)NC(=O)[C@H](CCCCN)NC(=O)[C@H]([C@@H](C)O)NC(=O)[C@H](Cc2c[nH]c3ccccc23)NC(=O)[C@@H](NC(=O)CNC(=O)[C@H](CCCCN)NC(=O)[C@@H](N)CC(C)C)CSSC[C@@H](C(=O)N[C@@H](Cc2ccccc2)C(=O)O)NC(=O)[C@@H]2CCCN2C(=O)[C@H](CCCCN)NC(=O)[C@@H]2CCCN2C(=O)[C@@H]2CCCN2C1=O` [LKGCWTKSIPPKPCF], for which the MIC with Bacillus subtilis turned out to be 1.37 µM (≈ 2.34 µg/mL); in [7], 2.75 µM (≈ 4.68 µg/mL); in experiment [5] it was 1.37 µM (≈ 2.34 µg/mL); in experiment [8], 1.03 µM (≈ 1.76 µg/mL).
For `CC[C@H](C)[C@H](NC(=O)CNC(=O)[C@H](CO)NC(=O)[C@H](CCCN=C(N)N)NC(=O)[C@@H](N)Cc1ccccc1)C(=O)N[C@@H](CC(C)C)C(=O)N[C@@H](CCCCN)C(=O)N[C@@H](CC(C)C)C(=O)N[C@@H](C)C(=O)N[C@@H](CO)C(=O)N[C@@H](CCCCN)C(=O)N[C@H](C(=O)N1CCC[C@H]1C(=O)N[C@@H](CO)C(=O)N[C@H](C(=O)N[C@@H](CC(C)C)C(=O)N[C@H]1CSSC[C@@H](C(=O)O)NC(=O)[C@H](CC(N)=O)NC(=O)[C@H](CCCCN)NC(=O)[C@H](CC(C)C)NC(=O)[C@H](C(C)C)NC(=O)[C@H](C)NC1=O)C(C)C)[C@@H](C)CC` [FRSGILKLASKIPSVLCAVLKNC], the MIC came out at 20.3 µM (≈ 50 µg/mL) against Bacillus subtilis, 10.2 µM (≈ 25 µg/mL) in [7], 20.3 µM (≈ 50 µg/mL) in [5] and 5.08 µM (≈ 12.5 µg/mL) in experiment [8].
Turning to `CC[C@H](C)[C@H](NC(=O)[C@H](CCCN=C(N)N)NC(=O)[C@H](CCCCN)NC(=O)[C@@H](NC(=O)[C@@H](NC(=O)[C@H](CCCN=C(N)N)NC(=O)[C@@H](N)CCCCN)[C@@H](C)CC)C(C)C)C(=O)N[C@@H](CCCCN)C(=O)N[C@@H](CCCCN)C(=O)N[C@@H](Cc1ccccc1)C(=O)N[C@@H](CC(C)C)C(=O)N[C@@H](CCCN=C(N)N)C(=O)O` [KRIVKRIKKFLR], the minimum inhibitory concentration (MIC) in experiment [9] was no less than 101 µM; against Acinetobacter baumannii, no less than 202 µM; in experiment [4] it was 2.5 µM (≈ 3.96 µg/mL); in experiment [5], 1.25 µM (≈ 1.98 µg/mL); in experiment [10], 1.25 µM (≈ 1.98 µg/mL); in experiment [11], no less than 202 µM. For the same compound, the MIC in experiment [12] was 2.5 µM (≈ 3.96 µg/mL); with Staphylococcus aureus MR, no less than 202 µM.
Consider `CC[C@H](C)[C@H](NC(=O)CNC(=O)[C@H](CCC(N)=O)NC(=O)[C@H](CC(C)C)NC(=O)[C@H](CC(N)=O)NC(=O)[C@H](CC(C)C)NC(=O)[C@H](Cc1ccccc1)NC(=O)CNC(=O)[C@H](Cc1cnc[nH]1)NC(=O)[C@H](CCCCN)NC(=O)[C@@H](N)CCCN=C(N)N)C(=O)N[C@@H](Cc1ccccc1)C(=O)NCC(=O)N[C@@H](CC(=O)O)C(=O)N[C@@H](Cc1ccc(O)cc1)C(=O)N[C@@H](Cc1ccc(O)cc1)C(=O)N[C@@H](Cc1cnc[nH]1)C(=O)N[C@@H](Cc1ccccc1)C(=O)N[C@@H](Cc1c[nH]c2ccccc12)C(=O)N[C@@H](Cc1cnc[nH]1)C(=O)N[C@@H](CCCN=C(N)N)C(=O)NCC(=O)N[C@H](C(=O)O)C(C)C` [RKHGFLNLQGIFGDYYHFWHRGV], for which the MIC was no less than 100 µM with Bacillus subtilis; greater than 100 µM in experiment [1]; 4 µM (≈ 11.4 µg/mL) in the experiment on Escherichia coli; no less than 100 µM in experiment [13]; greater than 100 µM in experiment [10]; greater than 100 µM in [14]. The figures for the MIC in [11] and in experiment [15] were greater than 100 µM and no less than 100 µM, respectively.
For the compound `CC[C@H](C)[C@H](NC(=O)[C@H](CCC(N)=O)NC(=O)[C@H](CC(C)C)NC(=O)[C@H](CCC(N)=O)NC(=O)[C@@H](NC(=O)[C@H](CCCN=C(N)N)NC(=O)[C@H](Cc1ccccc1)NC(=O)[C@H](Cc1c[nH]c2ccccc12)NC(=O)[C@@H](N)CCCN=C(N)N)[C@@H](C)CC)C(=O)N[C@@H](CCCN=C(N)N)C(=O)N[C@@H](CCCN=C(N)N)C(=O)N[C@@H](Cc1c[nH]c2ccccc12)C(=O)N[C@@H](CCCN=C(N)N)C(=O)N[C@@H](CC(N)=O)C(=O)N[C@@H](CCCN=C(N)N)C(=O)N[C@@H](CCCN=C(N)N)C(N)=O` [RWFRIQLQIRRWRNRR], the minimal inhibitory concentration (MIC) in experiment [5] and in [16] was 16 µM (≈ 37.4 µg/mL) throughout.
`CC[C@H](C)[C@H](NC(=O)[C@H](CCCCN)NC(=O)[C@H](CCCCN)NC(=O)[C@H](CC(C)C)NC(=O)[C@H](CCCN=C(N)N)NC(=O)[C@@H](NC(=O)[C@H](CCCN=C(N)N)NC(=O)[C@@H](NC(=O)[C@H](CCCCN)NC(=O)[C@@H](NC(=O)[C@H](CCCN=C(N)N)NC(=O)[C@H](CC(C)C)NC(=O)[C@H](CCCN=C(N)N)NC(=O)[C@H](CCCN=C(N)N)NC(=O)[C@H](Cc1ccccc1)NC(=O)[C@@H](N)CCCN=C(N)N)[C@@H](C)CC)[C@@H](C)O)[C@@H](C)CC)C(N)=O` [RFRRLRIKTRIRLKKI]: the minimal inhibitory concentration (MIC) was 16 µM (≈ 34.4 µg/mL) in experiment [1]; 8 µM and > 4 µM in experiment [5]; 16 µM (≈ 34.4 µg/mL) with Escherichia coli UB1005; 16 µM (≈ 34.4 µg/mL) in [2]; 64 µM and > 32 µM in experiment [12]; 16 µM (≈ 34.4 µg/mL) in [3].
`CC(C)C[C@H](NC(=O)[C@H](CCCN=C(N)N)NC(=O)[C@H](Cc1c[nH]c2ccccc12)NC(=O)[C@H](CCCN=C(N)N)NC(=O)[C@@H](NC(=O)[C@H](Cc1c[nH]c2ccccc12)NC(=O)[C@H](Cc1c[nH]c2ccccc12)NC(=O)[C@H](CCCN=C(N)N)NC(=O)[C@H](CC(C)C)NC(=O)[C@H](Cc1c[nH]c2ccccc12)NC(=O)[C@@H](N)CCCN=C(N)N)[C@@H](C)O)C(=O)N[C@@H](CCCCN)C(N)=O` [RWLRWWTRWRLK]: the MIC in experiment [5] turned out to be 4 µM (≈ 7.37 µg/mL); against Escherichia coli UB1005 it was 2 µM (≈ 3.68 µg/mL); in experiment [2] it was 4 µM (≈ 7.37 µg/mL); in experiment [11], 2 µM (≈ 3.68 µg/mL); in experiment [12], 4 µM (≈ 7.37 µg/mL); in [3] it was 4 µM (≈ 7.37 µg/mL).
Turning to `NC(=O)[C@H](CCCN=C(N)N)NC(=O)[C@H](CCCN=C(N)N)NC(=O)[C@@H]1CCCN1C(=O)[C@H](CCCN=C(N)N)NC(=O)[C@H](CCCN=C(N)N)NC(=O)[C@H](CCCN=C(N)N)NC(=O)[C@H](Cc1c[nH]c2ccccc12)NC(=O)[C@H](CCCN=C(N)N)NC(=O)[C@H](CCCN=C(N)N)NC(=O)[C@H](CCCN=C(N)N)NC(=O)[C@H](CCCN=C(N)N)NC(=O)[C@H](CCCN=C(N)N)NC(=O)[C@H](Cc1c[nH]c2ccccc12)NC(=O)[C@H](CCCN=C(N)N)NC(=O)[C@H](CCCN=C(N)N)NC(=O)[C@H](Cc1ccc(O)cc1)NC(=O)[C@H](CCCN=C(N)N)NC(=O)[C@H](CCCN=C(N)N)NC(=O)[C@H](CCCN=C(N)N)NC(=O)[C@@H](N)Cc1c[nH]c2ccccc12` [WRRRYRRWRRRRRWRRRPRR], the minimal inhibitory concentration (MIC) worked out at 3.13 µM (≈ 9.95 µg/mL) in [5], 3.13 µM (≈ 9.95 µg/mL) in [10], 1.56 µM (≈ 4.96 µg/mL) in experiment [11] and 1.56 µM (≈ 4.96 µg/mL) in experiment [16].

(Values after DBAASP.)
